Laboratory results: US8815900B2, “Compounds and compositions for reducing lipid levels” (CVI Pharmaceuticals Limited, priority 2007, dated 2014)

System: Wister male rats under a high fat and high cholesterol diet
Test: Lipid lowering and body weight effects of (14R,13S)-CRDL hydrochloride salt in Wister rats
Type: in vivo
Method: Male Wister rats were used as another animal model to examine the in vivo effects of (14R,13S)-CRDL in plasma lipid levels.
In one experiment, 18 Wister male rats under a high fat and high cholesterol diet were divided into 2 groups. One group was given (14R,13S)-CRDL hydrochloride salt orally at a daily dose of 75 mg/kg by an orogastric tube for 4 weeks, and the control group received daily treatment of equal amount of vehicle (0.1 M sodium phosphate, pH 3.5). Serum lipid levels were measured weekly.
At the end of treatment, Rats were sacrificed and blood and sera were collected to measure several critical parameters for liver function and kidney function. […] Kidney function and blood glucose level were not changed by the treatment (FIG. 11E).
The food intake and body weight gains were measured every week during the 4-week treatment period. […] In the first week, the amount of food consumed was decreased in CRDL-treated group. […] The ability of CRDL to activate AMPK signaling pathway to increase energy expenditure and to reduce fat accumulation likely contributes to this weight reducing effect.

[1] = (14R,13S)-CRDL hydrochloride salt orally 75 mg/kg daily, 4 weeks
[2] = end of 4-week treatment, 75 mg/kg daily orally
[3] = end of 4-week treatment, 75 mg/kg daily orally, vs control group

With COc1cc2c(cc1OC)[C@H]1[C@@H](C)c3ccc(OC)c(OC)c3CN1CC2 [CRDL, 14R,13S-(+)-corydaline] the body weight (4 weeks, 75 mg/kg daily orally, high fat and high cholesterol diet) was “maintained constant”, the “LDL-c level, % of control” value [1] was 25.6% and the “LDL-c level, % of day 0” value [1] was 22.4%. For the same compound, the “TC, % compared to the control group” value [1] was 33.8%, the “TC, % of the pretreatment level” value [1] was 33.0% and the “TG level, % of the control” value [1] was 29%. For the same compound, the “TG level, % of the pretreatment level (day 0)” value [1] was 27%, the “adverse effects during the entire treatment” value [1] was “No any adverse effects were observed” and the blood glucose level [2] was “not changed”. The “kidney function (BUN, CREA)” value [2] was “not changed”, the “serum level of ALT” value [3] was “statistically lower” and the “serum level of AST” value [3] was “statistically lower”.
